The values below come from US10654866B2, “Selective estrogen receptor degraders” (Eli Lilly and Company, priority 2018, dated 2020).

Where two headings read alike, the source gives them in different places.

One may read the Ki as a measure of affinity in units of concentration, obtained from inhibition or displacement. Lower therefore signals tighter binding. In general, IC50 refers to the concentration at which inhibition is half-maximal.

In one test the target is ERα (Y537S mutant) (Homo sapiens (Human), UniProt P03372, Y537S). The experiment in a line: ERα (Y537S mutant) competition binding assay. The conditions noted are these: 3H-estradiol competition; Ki from IC50 by Cheng-Prusoff. The procedure:
Add the test compound at 10 different concentrations ranging from 10,000 nM to 0.5 nM, and determine nonspecific binding in the presence of 1 μM of 1713 estradiol. Incubate the binding reaction (140 μL) for 4 hours at room temperature, and then add cold dextran-charcoal buffer (70 μL) (containing per 50 mL of assay buffer, 0.75 g of charcoal and 0.25 g of dextran) to each reaction. Mix the plates for 8 minutes on an orbital shaker at 4° C. and then centrifuge at 3000 rpm at 4° C. for 10 minutes. Transfer an aliquot (120 μL) of the mixture to another 96-well, white flat bottom plate (Costar) and add Perkin Elmer Optiphase Supermix scintillation fluid (175 μL) to each well. Seal the plates and shake vigorously on an orbital shaker. After an incubation of 2.5 hours, read the plates in a Wallac Microbeta counter. […] Convert the IC50 values for the compound to Ki using Cheng-Prusoff equation.

In test [1] the target is T1, ERα (Homo sapiens (Human), UniProt P03372). The experiment in a line: ERα degradation assay in MCF7 cells. The class given is cell-based. The conditions noted are these: 24 hours, % ER positive cells, read-out: Relative IC50. The procedure: The purpose of the following ERα degradation assay is to measure the degradation of ERα by a test compound in an ERα positive breast cancer cell line such as MCF7.
Culture MCF7 (purchased from ATCC HTB-22) cells in DMEM media supplemented with 10% FBS, 0.01 mg/mL human insulin 1 and 1% penicillin/streptomycin antibiotics and plate in 384-well flat-bottom plates at a density of 4,000 cells per well in phenol red free DMEM media (20 μL) containing 10% charcoal stripped FBS. Incubate the cells overnight in a cell culture incubator (5% CO2, 95% relative humidity and 37° C.) and allow the cells to attach to the plate. The following day dose the cells with the test compound. Use an Echo 555 acoustic dispenser to prepare test compound serial dilutions (1:3) in a range from 6 μM to 0.0003 μM. Dose the cells with the addition of 5 μL from the serial dilution plate to the cell plate producing a final DMSO concentration of 0.2% with a final test compound concentration dose range between 2 and 0.0001 μM. For the maximum point, use media containing 0.2% of DMSO and for the minimum point, use fulvestrant diluted at 2 μM final concentrations in the growth media containing 0.2% DMSO. After dosing with the test compound, incubate the cell plates at 37° C. and 5% CO2 for 24 hours. Fix the cells by adding 14% para-formaldehyde (10 μL) for 30 minutes at room temperature. Wash the cells once with PBS (20 μL) and incubate with PBS (20 μL) containing 0.5% (v/v) TWEEN® 20 for 1 hour. Wash the cells with PBS containing 0.05% TWEEN® 20 (2×) and block with 3% BSA in PBS containing 0.05% TWEEN® 20 and 0.1% TRITON™ X-100 (20 μL/well) for 1 hour at room temperature. Add 1:500 Primary antibody (20 μL) (ERα (Clone SP1) monoclonal rabbit antibody # RM-9101-S, Thermo Scientific) dilution in 1% BSA in PBS containing 0.05% TWEEN® 20 per well, seal the plates and incubate overnight at 4° C. The following day wash the cells with PBS containing 0.05% TWEEN® 20 (2×) and incubate with secondary antibody (20 μL/well) (1:1000 dilution, Goat anti-rabbit IgM ALEXA FLUOR™ 488) in PBS 1% BSA for 105 minutes at room temperature. […] Seal the plates and incubate 1 hour at room temperature on the bench (preserved from light). Scan the plates with ACUMEN EXPLORER™ [Laser-scanning fluorescence microplate cytometer manufactured by TTP LABTECH LTD] to measure ERα. Image analysis is based on cellular fluorescent signals for identifying positive cells. Identify ER positive cells by mean intensity. Use total intensity at 575-640 nm from propidium iodide/DNA to identify individual cells. Assay output is % ER positive cells. Determine the IC50 by curve fitting to a four parameter logistic for each output using GENE DATA™.

Test [2] deals with T1, ERα. The test is described as follows: PRα inhibition (ERα functional antagonism) cell assay in MCF7 cells. The class given is cell-based. The conditions noted are these: MCF7 cells pretreated with 0.47 nM estradiol, % PRα positive cells; read-out: Relative IC50. The source says: The purpose of the following PRα inhibition (ERα functional antagonism) cell assay is to determine the antagonistic activity of a test compound against the ERα receptor. An antagonist in this assay is expected to block the function of the ERα receptor.
Carry out the assay conditions as detailed in the ERα degradation Cell base Acumen assay above, using the MCF7 cell line except that, prior to test compound dispensing, remove the media from the cell plate and pretreat all wells except for the negative control wells (column 24 of the plate) with assay media containing 0.47 nM estradiol for 30 minutes. In this assay, carry out immunostaining for the detection of PRα and scan the plates with ACUMEN EXPLORER™ [Laser-scanning fluorescence microplate cytometer manufactured by TTP LABTECH LTD] to measure PRα. Image analysis is based on cellular fluorescent signals for identifying positive cells. Identify PRα positive cells by mean intensity. Use total intensity at 575-640 from propidium iodide/DNA to identify individual cells. Assay output is % PRα positive cells. Determine the IC50 by curve fitting to a four parameter logistic for each output using GENE DATA™.

In a further test the test system is MCF7 ESR1 wild type. The test is described as follows: Cell proliferation assay in MCF7. The class given is cell-based, human. The conditions noted are these: seven days, read-out: Relative IC50 (μM) MCF7 ESR1 wild type. The protocol:
Seed MCF7 (purchased from ATCC HTB-22) cells at a density of 2,000 cells per well in DMEM phenol red free media 10% FBS (20 μL volume) (charcoal stripped) into a clear bottom 384-well cell culture plate. Plate MCF7-ESRY537N-682 (generated by CRISPR/Cas9 gene editing of ESr1 gene in MCF7 cells, clone #682) in DMEM media supplemented with 10% FBS, and 1% penicillin/streptomycin antibiotics at a density of 1000 cells per well. Incubate the plates at 37° C. and 5% CO2. The following day dose the cells with the test compound. Use an Echo 555 acoustic dispenser to prepare test compound serial dilutions (1:3) in a range from 60 μM to 0.003 μM. Dose the cells with the addition of 5 μL from the serial dilution plate to the cell plate, producing a final DMSO concentration of 0.2% with a final test compound concentration dose range between 20 and 0.001 μM. For the maximum point use media containing 0.2% of DMSO and for the minimum point use fulvestrant diluted at 2 μM final concentrations in the growth media containing 0.2% DMSO. After dosing with the test compound, incubate the cell plates at 37° C. and 5% CO2. Seven days after test compound addition, remove the plates from the incubator and add cold EtOH 96% (65 μL) to each well. […] Seal the plates and incubate 1 hour at room temperature on the bench (preserved from light). Scan the plates with ACUMEN EXPLORER™ [Laser-scanning fluorescence microplate cytometer manufactured by TTP LABTECH LTD].

Chain of ERα (Y537S mutant) (P03372 whole entry Y537S): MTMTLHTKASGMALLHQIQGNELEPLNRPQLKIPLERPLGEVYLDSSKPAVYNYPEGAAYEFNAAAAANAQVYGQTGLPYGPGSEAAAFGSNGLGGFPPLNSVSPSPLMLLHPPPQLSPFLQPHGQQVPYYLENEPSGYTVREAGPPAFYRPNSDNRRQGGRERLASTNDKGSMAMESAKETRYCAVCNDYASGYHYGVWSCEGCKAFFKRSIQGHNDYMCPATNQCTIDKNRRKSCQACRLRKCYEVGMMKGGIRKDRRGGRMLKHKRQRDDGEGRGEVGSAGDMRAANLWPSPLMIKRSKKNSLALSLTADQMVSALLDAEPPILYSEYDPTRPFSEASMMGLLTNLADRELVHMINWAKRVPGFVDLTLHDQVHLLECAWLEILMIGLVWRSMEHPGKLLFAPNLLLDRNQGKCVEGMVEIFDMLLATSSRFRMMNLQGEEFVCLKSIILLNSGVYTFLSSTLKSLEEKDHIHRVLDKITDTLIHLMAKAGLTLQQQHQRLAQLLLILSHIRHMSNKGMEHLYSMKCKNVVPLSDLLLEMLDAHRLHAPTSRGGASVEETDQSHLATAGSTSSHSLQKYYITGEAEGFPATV
T1 sequence (P03372 whole entry): as the sequence (P03372 whole entry Y537S) above, with S537Y counted along it

With `Oc1ccc2c3c(cnc2c1)-c1ccc(F)cc1OC3c1ccc(OCCN2CC(CF)C2)cc1` (single isomer, unassigned) [Example 5A, 8-Fluoro-5-(4-{2-[3-(fluoromethyl)azetidin-1-yl]ethoxy}phenyl)-5H-[1]benzopyrano[4,3-c]quinolin-2-ol], on ERα (Y537S mutant), the Ki turned out to be 81.2 nM. On ERα [1], the DC50 was found to be 522 nM. Moreover, the IC50 on ERα [2] stood at 600 nM; with MCF7 ESR1 wild type, 0.41 µM.
For `Oc1ccc2c3c(cnc2c1)-c1ccc(F)cc1OC3c1ccc(OCCN2CC(CF)C2)cc1` (single isomer, unassigned) [Example 5B, 8-Fluoro-5-(4-{2-[3-(fluoromethyl)azetidin-1-yl]ethoxy}phenyl)-5H-[1]benzopyrano[4,3-c]quinolin-2-ol], in that order: 6.56 nM, 9.49 ± 1.1 nM, 32 ± 5.31 nM and 0.00767 µM.
Regarding `Oc1ccc2c3c(cnc2c1)-c1cccc(F)c1OC3c1ccc(OCCN2CC(CF)C2)cc1` (single isomer, unassigned) [Example 6A, 7-Fluoro-5-(4-{2-[3-(fluoromethyl)azetidin-1-yl]ethoxy}phenyl)-5H-[1]benzopyrano[4,3-c]quinolin-2-ol], at ERα (Y537S mutant), the affinity corresponds to a Ki of 46 nM. For the same compound, on ERα [1], the DC50 amounted to 175 nM. Further, the IC50 at ERα [2] worked out at 253 nM; in the test with MCF7 ESR1 wild type (Homo sapiens, MCF7, […]), 0.0759 µM.
With `Cc1cccc2c1OC(c1ccc(OCCN3CC(CF)C3)cc1)c1c-2cnc2cc(O)ccc12` (single isomer, unassigned) [Example 8A, 5-(4-{2-[3-(Fluoromethyl)azetidin-1-yl]ethoxy}phenyl)-7-methyl-5H-[1]benzopyrano[4,3-c]quinolin-2-ol], on ERα (Y537S mutant), affinity was put at a Ki of 66.9 nM. In addition, the DC50 on ERα [1] turned out to be 234 nM. For the same compound, the values for the IC50 on ERα [2] and with MCF7 ESR1 wild type were 206 nM and 0.174 µM, respectively.
The like results for `Cc1cccc2c1OC(c1ccc(OCCN3CC(CF)C3)cc1)c1c-2cnc2cc(O)ccc12` (single isomer, unassigned) [Example 8B, 5-(4-{2-[3-(Fluoromethyl)azetidin-1-yl]ethoxy}phenyl)-7-methyl-5H-[1]benzopyrano[4,3-c]quinolin-2-ol] were, in that order, 5.44 nM, 9.62 ± 5.2 nM, 48.5 ± 29.4 nM and 0.00508 µM.
